# Laboratory results as given in patent US5117052A, “Physiologically active substances, benastatins A and B, and production and use thereof” (priority 1990, dated 1992).
# What was measured:
# Aspergillus niger F-16 = experiment: Agar dilution assay, minimum growth inhibition concentration; type: cell-based; settings: F16; Aspergillus niger F-16; read-out: Minimum growth-inhibition concentration
# Candida tropicalis F-1 = experiment: as above; type: cell-based; settings: F1; Candida tropicalis F-1; read-out: Minimum growth-inhibition concentration
# mouse = experiment: Toxicity on administration to the abdominal cavity; type: in vivo; settings: 100 mg/kg
# From the text: Benastatins A and B were each administered to the abdominal cavity of a mouse to examine the toxicity thereof.
# [1] = system: Staphylococcus aureus No. 5 (MRSA); experiment: Agar dilution assay, minimum growth inhibition concentration; type: cell-based; settings: read-out: Minimum growth-inhibition concentration
# [2] = system: Saccharomyces cerevisiae F-7; experiment: as above; type: cell-based; settings: F7; Saccharomyces cerevisiae F-7; read-out: Minimum growth-inhibition concentration
# Pyricularia oryzae = experiment: microbe, parasite or virus in culture; type: cell-based; settings: read-out: Minimum growth-inhibition concentration
# [3] = system: Staphylococcus aureus No. 17 (MRSA); experiment: Agar dilution assay, minimum growth inhibition concentration; type: cell-based; settings: read-out: Minimum growth-inhibition concentration
# [4] = system: spleen cells (LPS lymphocyte blast formation reaction); experiment: Suppression of LPS-induced lymphocyte blast formation, [3H]-thymidine uptake (Test 2); type: cell-based, BALB/c mouse; settings: Mus musculus, LPS 100 μg/ml, 72 hours, read-out: IC50, 50% suppression of lymphocyte blast formation (LPS)
# Protocol: (§1) A pharmacological test was made about a suppression activity of benastatins on the lymphocyte blast formation reaction.
# (§2) In this test, use was made of an RPMI 1640 culture medium supplemented with 20% bovin fetus serum, 25 mM Hepes buffer, 100 μg/ml streptomycin and 100 units/ml penicillin G. The cultivation was effected by using microplate (COSTAR) with a flat bottom and with 96 wells. As mitogens, use was made of lipopolysaccharide (LPS) and concanavalin A (Con A) at concentrations of 100 and 5 μg/ml, respectively.
# (§3) After spleen cells were taken out from BALB/c mouse (female, 25 weeks old), a unicellular suspension of the spleen cells was prepared, and then subjected to a hyper shock treatment to remove erythrocytes therefrom.
# (§4) Each well was charged with 0.2 ml of a sample which contained 2×10^5 spleen cells and the test compound at a predetermined concentration. The cultivation was conducted for 72 hours. Before 8 hours from the completion of cultivation, each well was further charged with 37 KBq of [^3 H]-thymidine to determine the amount of the thymidine taken into the cells. […]
# [5] = system: Corynebacterium bovis 1810; experiment: Agar dilution assay, minimum growth inhibition concentration; type: cell-based
# Protocol: (§5) The minimum of microorganism growth inhibition concentrations of benastatins A and B were determined for various bacteria, east and fungi according to a conventional agar dilution assay method. It will be seen from Table 1 that benastatins A and B have a satisfactory antimicrobial activity, particularly against gram-positive bacteria, etc.
# [6] = system: Bacillus subtilis NRRL B-558; experiment: as above; type: cell-based; settings: NRRLB558
# Protocol: as §5
# [7] = system: Staphylococcus aureus MS9610; experiment: as above; type: cell-based
# Protocol: as §5
# [8] = system: Cryptococcus neoformans F-10; experiment: as above; type: cell-based; settings: F10
# Protocol: as §5
# Cochliobolus miyabeanus = experiment: as above; type: cell-based; settings: Bipolaris oryzae
# Protocol: as §5
# [9] = system: Staphylococcus aureus Smith; experiment: as above; type: cell-based
# Protocol: as §5
# Micrococcus luteus FDA16 = experiment: as above; type: cell-based
# Protocol: as §5
# [10] = system: Bacillus cereus ATCC10702; experiment: as above; type: cell-based
# Protocol: as §5
# Escherichia coli NIHJ = experiment: Agar dilution assay, minimum growth inhibition concentration; type: cell-based; settings: Escherichia coli NIHJ; read-out: Minimum growth-inhibition concentration
# [11] = system: spleen cells (Con A lymphocyte blast formation reaction); experiment: Suppression of Con A-induced lymphocyte blast formation, [3H]-thymidine uptake (Test 2); type: cell-based, BALB/c mouse; settings: Mus musculus, Con A 5 μg/ml, 72 hours, read-out: IC50, 50% suppression of lymphocyte blast formation (Con A)
# Protocol: as §1, §2, §3, §4
# glutathione transferase = molecular target: T1, glutathione transferase (Rattus norvegicus, UniProt P04905); experiment: Glutathione transferase inhibition activity (3,4-dichloronitrobenzene/glutathione, absorption at 345 nm); type: biochemical
# T1 construct: obtained from a homogenate of rat liver; from tissue; host or cells: rat liver homogenate, partially purified by DEAE-cellulose column and ammonium sulfate salting-out
# Protocol: The glutathione transferase inhibition activity was determined by a modified method based on the known method described in Biochemical and Biophysical Research Communications, 112, 980-985 (1983).
# A test tube was charged with a solution mixture consisting of (a) 0.1 ml of 90 mM glutathione (reduction type), (b) 0.05 ml of 20 mM 3,4-dichloronitrobenzene, (c) 1.7 ml of 0.1M potassium phosphate buffer solution (pH 7.4) and (d) 0.1 ml of an aqueous solution containing the test compound. The solution mixture was heated to 37° C. for 3 minutes, and admixed with 0.05 ml of a glutathione transferase solution to effect a reaction at 37° C. for 30 minutes. The glutathione transferase solution employed was one which had been obtained from a homogenate of rat liver and which had been patially refined by means of a DEAE-cellulose column and of salting out-operation with ammonium sulfate.
# After the completion of the reaction, the sample was measured for the light absorption (a) at 345 nm. At the same time, a control sample which was free of the test compound and which contained only the buffer solution was measured for the light absorption (b) at 345 nm.
# The glutathione transferase inhibition activity was determined according to the formula: […]
# IC50, which is the concentration of a test compound required for 50% inhibition, was recorded.
# [12] = system: Pseudomanas aeruginosa A3; experiment: Agar dilution assay, minimum growth inhibition concentration; type: cell-based; settings: Pseudomanas aeruginosa A3; read-out: Minimum growth-inhibition concentration
# [13] = system: Mycabacterium smegmatis ATCC607; experiment: as above; type: cell-based; settings: Mycabacterium smegmatis ATCC607; read-out: Minimum growth-inhibition concentration
# Proteus rettgeri GN311 = experiment: as above; type: cell-based; settings: Providencia rettgeri; Proteus rettgeri GN311; read-out: Minimum growth-inhibition concentration
# Salmonella typhi T-63 = experiment: as above; type: cell-based; settings: Salmonella enterica
# [14] = system: Klebsiella pneumoniae PCI602; experiment: as above; type: cell-based; settings: Klebsiella pneumoniae PCI602; read-out: Minimum growth-inhibition concentration
# [15] = system: Shigella dysenteriae JS11910; experiment: as above; type: cell-based; settings: JS11910, read-out: Minimum growth-inhibition concentration
# T1 sequence (P04905 2-218 limits assumed): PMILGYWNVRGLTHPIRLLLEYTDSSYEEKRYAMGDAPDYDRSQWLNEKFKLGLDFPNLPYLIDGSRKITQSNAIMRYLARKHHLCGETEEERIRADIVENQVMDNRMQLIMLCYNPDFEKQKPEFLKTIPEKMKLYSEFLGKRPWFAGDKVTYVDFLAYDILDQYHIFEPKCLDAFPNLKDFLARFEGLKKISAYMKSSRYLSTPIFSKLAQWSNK
compound,measurement,setting,value
"CCCCCc1cc2ccc3c(O)c4c(cc3c2c(O)c1C(=O)O)C(C)(C)c1cc(O)cc(O)c1C4=O [Benastatin A, benastatin A]",MIC,Aspergillus niger F-16,> 50 µg/mL
same,MIC,Candida tropicalis F-1,> 50 µg/mL
same,Toxicity,mouse,No toxicity was observed
same,MIC,[1],3.12 µg/mL
same,MIC,[2],> 100 µg/mL
same,MIC,Pyricularia oryzae,50 µg/mL
same,MIC,[3],3.12 µg/mL
same,IC50,[4],7.7 µg/mL
same,MIC,[5],3.12 µg/mL
same,MIC,[6],3.12 µg/mL
same,MIC,[7],3.12 µg/mL
same,MIC,[8],50 µg/mL
same,MIC,Cochliobolus miyabeanus,> 25 µg/mL
same,MIC,[9],3.12 µg/mL
same,MIC,Micrococcus luteus FDA16,3.12 µg/mL
same,MIC,[10],3.12 µg/mL
same,Solubility in organic solvents,"Solubility; dimethyl sulfoxide, methanol, acetone, ethyl acetate",soluble
same,Solubility in water,Solubility; water,insoluble
same,MIC,Escherichia coli NIHJ,100 µg/mL
same,IC50,[11],7.3 µg/mL
same,IC50,glutathione transferase,4.99 µM
same,MIC,[12],> 50 µg/mL
same,MIC,[13],50 µg/mL
same,MIC,Proteus rettgeri GN311,50 µg/mL
same,MIC,Salmonella typhi T-63,> 50 µg/mL
same,MIC,[14],> 50 µg/mL
same,MIC,[15],> 50 µg/mL
